From ChEMBL document CHEMBL4725475, “Discovery of Potent and Selective 7-Azaindole Isoindolinone-Based PI3Kγ Inhibitors” (ACS Med Chem Lett, 2020)

How the values were obtained:
[1] = Intrinsic clearance in rat hepatocytes assessed as per million cells; format: ADME, cell-based, Hepatocyte
[2] = target: T1, Phosphatidylinositol 4,5-bisphosphate 3-kinase catalytic subunit gamma isoform (Homo sapiens, UniProt P48736); test: Inhibition of PI3K p120gamma (unknown origin) using phosphatidylinositol 4,5-bisphosphate as substrate in presence of ATP incubated for 60 mins by ADP-Glo assay
T1 sequence (P48736 whole entry, canonical isoform): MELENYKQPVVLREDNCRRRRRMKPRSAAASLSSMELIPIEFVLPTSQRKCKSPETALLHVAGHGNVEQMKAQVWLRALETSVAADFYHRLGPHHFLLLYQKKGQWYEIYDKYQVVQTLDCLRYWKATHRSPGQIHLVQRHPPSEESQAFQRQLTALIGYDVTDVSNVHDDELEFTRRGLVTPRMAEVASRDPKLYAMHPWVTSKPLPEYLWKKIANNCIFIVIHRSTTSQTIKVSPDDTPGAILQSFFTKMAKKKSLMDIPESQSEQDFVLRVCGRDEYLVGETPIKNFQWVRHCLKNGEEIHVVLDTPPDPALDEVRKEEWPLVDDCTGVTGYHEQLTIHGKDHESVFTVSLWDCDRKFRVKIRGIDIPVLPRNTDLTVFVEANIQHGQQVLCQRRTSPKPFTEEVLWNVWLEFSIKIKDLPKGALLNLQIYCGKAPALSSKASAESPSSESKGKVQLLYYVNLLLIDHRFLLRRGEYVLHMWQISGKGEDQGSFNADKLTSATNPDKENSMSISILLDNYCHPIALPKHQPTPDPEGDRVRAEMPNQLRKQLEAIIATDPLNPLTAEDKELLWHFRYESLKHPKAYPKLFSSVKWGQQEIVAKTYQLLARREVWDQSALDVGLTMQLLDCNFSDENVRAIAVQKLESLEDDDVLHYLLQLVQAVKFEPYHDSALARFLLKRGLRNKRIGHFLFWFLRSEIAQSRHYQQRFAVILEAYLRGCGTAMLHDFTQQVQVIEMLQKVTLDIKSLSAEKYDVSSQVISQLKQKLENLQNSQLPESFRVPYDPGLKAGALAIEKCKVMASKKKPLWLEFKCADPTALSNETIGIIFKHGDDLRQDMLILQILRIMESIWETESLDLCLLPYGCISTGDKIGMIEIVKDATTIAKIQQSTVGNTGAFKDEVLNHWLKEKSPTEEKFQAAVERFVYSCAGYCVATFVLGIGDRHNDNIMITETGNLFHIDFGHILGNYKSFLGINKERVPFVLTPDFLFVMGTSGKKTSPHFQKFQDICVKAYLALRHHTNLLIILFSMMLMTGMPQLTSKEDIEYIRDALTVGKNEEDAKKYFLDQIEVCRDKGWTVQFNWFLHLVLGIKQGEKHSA

[3] = Clearance in Sprague-Dawley rat at 0.25 mg/kg, iv measured upto 8 hrs by LC/MS/MS analysis; format: ADME, organism-based; conditions: in vivo
[4] = Intrinsic clearance in cryopreserved human hepatocytes assessed as per million cells at 0.5 uM by LC-MS/MS analysis; format: ADME, cell-based, Hepatocyte
Homo sapiens [5] = organism: Homo sapiens; test: Selectivity index, ratio of inhibition for PI3Kdelta (unknown origin) to inhibition for PI3K p120 gamma (unknown origin) using phosphatidylinositol 4,5-bisphosphate as substrate in presence of ATP incubated for 60 mins by ADP-Glo assay
[6] = target: T1, Phosphatidylinositol 4,5-bisphosphate 3-kinase catalytic subunit gamma isoform; test: Inhibition of PI3Kgamma in human THP-1 cells assessed as reduction in Akt phosphorylation at S473 residue incubated for 60 mins measured after 120 mins by alphalisa assay; format: cell-based
Homo sapiens [7] = organism: Homo sapiens; test: Selectivity index, ratio of inhibition for PI3Kalpha (unknown origin) to inhibition for PI3K p120 gamma (unknown origin) using phosphatidylinositol 4,5-bisphosphate as substrate in presence of ATP incubated for 60 mins by ADP-Glo assay
[8] = Efflux ratio of permeability in human Caco2 cells; format: ADME, cell-based; conditions: Caco-2
[9] = Apparent permeability in human Caco2 cells; format: ADME, cell-based; conditions: Caco-2
Cytochrome P450 2C19 = Cytochrome P450 2C19 (Homo sapiens, UniProt P33261); test: Inhibition of CYP2C19 (unknown origin) using S-mephenytoin as substrate measured after 5 to 20 mins in presence of NADPH by LC-MS/MS analysis; format: ADME
Sequence of Cytochrome P450 2C19 (P33261 whole entry): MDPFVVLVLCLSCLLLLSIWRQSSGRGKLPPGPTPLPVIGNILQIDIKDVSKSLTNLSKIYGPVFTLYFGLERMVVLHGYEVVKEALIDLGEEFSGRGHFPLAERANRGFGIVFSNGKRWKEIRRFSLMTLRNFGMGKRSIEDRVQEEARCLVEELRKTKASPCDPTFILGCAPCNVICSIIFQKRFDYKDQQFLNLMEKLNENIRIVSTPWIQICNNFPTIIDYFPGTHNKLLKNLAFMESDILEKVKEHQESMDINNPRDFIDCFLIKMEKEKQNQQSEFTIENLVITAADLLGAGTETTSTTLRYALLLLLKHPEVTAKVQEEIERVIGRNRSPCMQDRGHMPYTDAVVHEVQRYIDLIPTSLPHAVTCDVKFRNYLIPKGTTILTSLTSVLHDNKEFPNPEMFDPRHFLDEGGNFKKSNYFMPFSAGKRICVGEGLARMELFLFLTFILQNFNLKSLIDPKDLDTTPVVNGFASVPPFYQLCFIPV

Cytochrome P450 1A2 = target: T2, Cytochrome P450 1A2 (Homo sapiens, UniProt P05177); test: Inhibition of CYP1A2 (unknown origin) using phenacetin as substrate measured after 5 to 20 mins in presence of NADPH by LC-MS/MS analysis; format: ADME
T2 sequence (P05177 whole entry): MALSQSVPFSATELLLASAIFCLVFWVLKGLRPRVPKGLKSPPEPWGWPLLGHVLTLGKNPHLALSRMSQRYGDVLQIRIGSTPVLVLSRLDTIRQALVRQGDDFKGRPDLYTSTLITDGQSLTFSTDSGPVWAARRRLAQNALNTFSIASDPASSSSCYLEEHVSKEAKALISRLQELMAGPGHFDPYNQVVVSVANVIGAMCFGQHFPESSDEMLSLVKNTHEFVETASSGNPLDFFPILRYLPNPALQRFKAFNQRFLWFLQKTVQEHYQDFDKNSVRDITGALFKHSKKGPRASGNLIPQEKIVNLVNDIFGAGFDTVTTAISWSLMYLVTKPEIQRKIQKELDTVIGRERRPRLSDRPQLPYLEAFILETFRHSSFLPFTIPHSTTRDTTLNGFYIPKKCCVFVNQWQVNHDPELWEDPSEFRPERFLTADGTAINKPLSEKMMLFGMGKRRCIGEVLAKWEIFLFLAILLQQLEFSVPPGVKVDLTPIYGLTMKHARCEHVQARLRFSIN

Cytochrome P450 3A4 = Cytochrome P450 3A4 (Homo sapiens, UniProt P08684); test: Inhibition of CYP3A4 (unknown origin) using midazolam as substrate measured after 5 to 20 mins in presence of NADPH by LC-MS/MS analysis; format: ADME
Sequence of Cytochrome P450 3A4 (P08684 whole entry): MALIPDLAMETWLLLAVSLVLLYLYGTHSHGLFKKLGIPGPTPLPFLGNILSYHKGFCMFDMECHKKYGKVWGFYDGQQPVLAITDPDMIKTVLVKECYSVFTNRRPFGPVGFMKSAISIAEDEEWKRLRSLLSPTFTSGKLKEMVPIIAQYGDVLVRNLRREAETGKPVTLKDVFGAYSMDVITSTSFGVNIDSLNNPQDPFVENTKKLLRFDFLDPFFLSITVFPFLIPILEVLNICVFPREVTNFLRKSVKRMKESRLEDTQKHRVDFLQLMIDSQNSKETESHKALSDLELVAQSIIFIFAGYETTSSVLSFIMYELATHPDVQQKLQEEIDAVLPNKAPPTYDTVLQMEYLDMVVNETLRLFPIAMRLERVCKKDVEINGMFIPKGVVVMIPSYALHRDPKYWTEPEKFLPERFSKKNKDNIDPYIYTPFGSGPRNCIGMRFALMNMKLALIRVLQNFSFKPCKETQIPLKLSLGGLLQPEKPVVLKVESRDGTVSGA

Cytochrome P450 2D6 = Cytochrome P450 2D6 (Homo sapiens, UniProt P10635); test: Inhibition of CYP2D6 (unknown origin) using diclofenac as substrate measured after 5 to 20 mins in presence of NADPH by LC-MS/MS analysis; format: ADME
Sequence of Cytochrome P450 2D6 (P10635 whole entry): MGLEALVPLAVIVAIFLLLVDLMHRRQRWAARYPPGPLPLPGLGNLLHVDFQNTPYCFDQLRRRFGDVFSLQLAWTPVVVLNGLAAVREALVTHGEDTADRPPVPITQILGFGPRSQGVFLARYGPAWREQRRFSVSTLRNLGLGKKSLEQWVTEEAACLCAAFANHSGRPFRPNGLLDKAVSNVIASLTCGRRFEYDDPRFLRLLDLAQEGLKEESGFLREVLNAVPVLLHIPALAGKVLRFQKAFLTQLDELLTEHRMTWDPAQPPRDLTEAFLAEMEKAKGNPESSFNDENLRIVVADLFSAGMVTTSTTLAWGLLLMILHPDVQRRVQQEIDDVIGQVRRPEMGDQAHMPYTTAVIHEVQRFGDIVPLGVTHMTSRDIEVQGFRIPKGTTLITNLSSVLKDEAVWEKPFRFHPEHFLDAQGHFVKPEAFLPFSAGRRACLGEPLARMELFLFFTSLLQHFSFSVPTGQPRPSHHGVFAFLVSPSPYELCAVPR

Cytochrome P450 2C9 = Cytochrome P450 2C9 (Homo sapiens, UniProt P11712); test: Inhibition of CYP2C9 (unknown origin) using diclofenac as substrate measured after 5 to 20 mins in presence of NADPH by LC-MS/MS analysis; format: ADME
Sequence of Cytochrome P450 2C9 (P11712 whole entry): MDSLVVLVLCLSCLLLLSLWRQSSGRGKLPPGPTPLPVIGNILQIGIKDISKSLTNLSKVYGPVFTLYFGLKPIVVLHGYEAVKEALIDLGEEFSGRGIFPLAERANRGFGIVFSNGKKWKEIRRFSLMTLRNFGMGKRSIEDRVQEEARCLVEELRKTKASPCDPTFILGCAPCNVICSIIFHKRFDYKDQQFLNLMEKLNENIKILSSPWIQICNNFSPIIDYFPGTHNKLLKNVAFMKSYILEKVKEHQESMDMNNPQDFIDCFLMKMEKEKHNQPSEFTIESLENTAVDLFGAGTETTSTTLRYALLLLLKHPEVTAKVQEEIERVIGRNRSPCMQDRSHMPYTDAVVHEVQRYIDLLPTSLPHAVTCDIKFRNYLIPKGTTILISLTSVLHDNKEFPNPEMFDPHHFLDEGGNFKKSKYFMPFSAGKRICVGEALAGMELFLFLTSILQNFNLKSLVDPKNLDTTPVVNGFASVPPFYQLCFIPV

| Compound | CLH [1] | IC50 [2] | clearance [3] | CLH [4] | Selectivity ratio (Homo sapiens [5]) | IC50 [6] | Selectivity ratio (Homo sapiens [7]) | efflux ratio [8] | Papp [9] | IC50 (Cytochrome P450 2C19) | IC50 (Cytochrome P450 1A2) | IC50 (Cytochrome P450 3A4) | IC50 (Cytochrome P450 2D6) | IC50 (Cytochrome P450 2C9) |
| --- | --- | --- | --- | --- | --- | --- | --- | --- | --- | --- | --- | --- | --- | --- |
| Cc1cc(-c2cnc3[nH]cc(-c4ccncc4)c3c2)cc2c1C(=O)N([C@@H](C)C1CC1)C2 | – | 3.4 nM | – | – | 290 | 220 nM | 379 | – | – | < 100 nM | 700 nM | 300 nM | 2000 nM | 300 nM |
| Cc1cc(-c2cnc3[nH]cc(-c4ccc(C5(C(=O)O)CC5)cc4)c3c2)cc2c1C(=O)N([C@@H](C)C1CC1)C2 | 16 µL/min/1e6 cells | 3.3 nM | 30 mL/min/kg | 1.7 µL/min/1e6 cells | 1400 | 150 nM | 863 | – | – | – | – | – | – | – |
| Cc1cc(-c2c[nH]c3ncc(-c4cc5c(c(C(F)(F)F)c4)C(=O)N([C@@H](C)C4CC4)C5)cc23)cc(C)c1C(=O)O | < 1.2 µL/min/1e6 cells | 2.8 nM | 467 mL/min/kg | 1.8 µL/min/1e6 cells | 84 | 30 nM | 257 | – | – | – | – | – | – | – |
| CNS(=O)(=O)c1cc(-c2cnc3[nH]cc(-c4cnn(C)c4)c3c2)cc2c1C(=O)N([C@@H](C)C1CC1)C2 | – | 4 nM | – | – | 101 | 70 nM | > 4160 | – | – | – | – | – | – | – |
| Cc1cc(-c2cnc3[nH]cc(C4CCNC4)c3c2)cc2c1C(=O)N([C@@H](C)C1CC1)C2 (stereo partly drawn) | – | 281 nM | – | – | > 36 | 3800 nM | > 36 | – | – | – | – | – | – | – |
| Cc1cc(-c2cnc3[nH]cc(-c4ccccn4)c3c2)cc2c1C(=O)N([C@@H](C)C1CC1)C2 | – | 33 nM | – | – | > 308 | 3500 nM | > 308 | – | – | – | – | – | – | – |
| Cc1cc(-c2c[nH]c3ncc(-c4cc(C)c5c(c4)CN([C@@H](C)C4CC4)C5=O)cc23)ccc1CC(=O)O | 23 µL/min/1e6 cells | 3.3 nM | 30 mL/min/kg | 8 µL/min/1e6 cells | 397 | 150 nM | 539 | – | – | – | – | – | – | – |
| Cc1cc(-c2c[nH]c3ncc(-c4cc(C)c5c(c4)CN([C@@H](C)C4CC4)C5=O)cc23)ccc1C(=O)O | 51 µL/min/1e6 cells | 2.8 nM | – | 19 µL/min/1e6 cells | 505 | 78 nM | 433 | – | – | – | – | – | – | – |

Second part, the compound after the results:

| CLH [1] | IC50 [2] | clearance [3] | CLH [4] | Selectivity ratio (Homo sapiens [5]) | IC50 [6] | Selectivity ratio (Homo sapiens [7]) | efflux ratio [8] | Papp [9] | IC50 (Cytochrome P450 2C19) | IC50 (Cytochrome P450 1A2) | IC50 (Cytochrome P450 3A4) | IC50 (Cytochrome P450 2D6) | IC50 (Cytochrome P450 2C9) | Compound |
| --- | --- | --- | --- | --- | --- | --- | --- | --- | --- | --- | --- | --- | --- | --- |
| 46 µL/min/1e6 cells | 2.2 nM | 115 mL/min/kg | 20 µL/min/1e6 cells | 1210 | 90 nM | 1520 | – | – | – | – | – | – | – | Cc1cc(-c2c[nH]c3ncc(-c4cc(C)c5c(c4)CN([C@@H](C)C4CC4)C5=O)cc23)cc(C)c1C(=O)O |
| 18 µL/min/1e6 cells | 3.6 nM | – | 2.6 µL/min/1e6 cells | 620 | 110 nM | 742 | – | – | – | – | – | – | – | C[C@@H](C1CC1)N1Cc2cc(-c3cnc4[nH]cc(-c5ccc(C6(C(=O)O)CC6)cc5)c4c3)cc(C(F)(F)F)c2C1=O |
| 54 µL/min/1e6 cells | 2.5 nM | 183 mL/min/kg | 24 µL/min/1e6 cells | 136 | 140 nM | 259 | 46.6 | 1.07 ×10⁻⁶ cm/s | – | – | – | – | – | Cc1cc(-c2cnc3[nH]cc(-c4ccc(C(=O)O)cc4)c3c2)cc2c1C(=O)N([C@@H](C)C1CC1)C2 |
| 2 µL/min/1e6 cells | 1.2 nM | – | < 1.2 µL/min/1e6 cells | 335 | 40 nM | 918 | – | – | – | – | – | – | – | Cc1cc(-c2c[nH]c3ncc(-c4cc5c(c(C(F)(F)F)c4)C(=O)N([C@@H](C)C4CC4)C5)cc23)ccc1C(=O)O |
| 17 µL/min/1e6 cells | 2.6 nM | – | 6.9 µL/min/1e6 cells | 872 | 160 nM | 878 | – | – | – | – | – | – | – | Cc1cc(-c2cnc3[nH]cc(-c4ccc(CC(=O)O)cc4)c3c2)cc2c1C(=O)N([C@@H](C)C1CC1)C2 |
| 27 µL/min/1e6 cells | 2.1 nM | – | 2.3 µL/min/1e6 cells | 968 | 180 nM | 835 | – | – | – | – | – | – | – | Cc1cc(-c2cnc3[nH]cc(-c4ccc(C(C)(C)C(=O)O)cc4)c3c2)cc2c1C(=O)N([C@@H](C)C1CC1)C2 |
